“Also recorded” adds a separate entry of the source.

One test relates to human cancer cell lines. In words: Growth inhibition of human cancer cell lines, 3-day exposure. The class given is cell-based. The conditions noted are these: 72 h, read-out: concentration required to inhibit tumor cell growth (IC50). The method, then:
Parallel studies were carried out to assess whether disruption of cell adhesion played a role in the cytotoxic activity.

The subject of test [1] is SKOV-3 human ovarian tumor xenografts. In words: i.p. SKOV-3 human ovarian tumor xenografts in female nude mice. The class given is in vivo. The source says: Fourteen days following the final Taurolidine injection, mice in all groups were sacrificed and the peritoneal cavity examined for the presence of tumors. Each experimental was repeated three times and the pooled number of animals in each group ranged from 15-21.
Fourteen days following the final Taurolidine injection, mice in all groups were sacrificed, i.p. ovarian tumor xenografts removed and tumor weighed. Each experiment was repeated three times and the pooled number of animals in each group ranged from 15-21. Each bar represents the mean (±SE) tumor weight of 15-21 animals. ***p≦0.001, ****p≦0.0001.
To evaluate therapeutic effectiveness, mice received a single intraperitoneal injection of 5×10^6 SKOV-3 cells in a volume of 0.5 ml. Immediately thereafter, mice were randomly divided into treatment groups of 7 animals. […] Control animals received 1 ml injections of 5% Kollidon 17PF alone. Animals were examined daily and body weight recorded twice weekly. […] The mean tumor weight for each treatment group was calculated and statistical analysis of differences in the mean tumor weight between treatment groups employed the Student's t-test. p-values of ≦0.05 were considered significant.

A further test deals with 3T3 cells. In words: DNA fragmentation, normal 3T3 cells. The class given is cell-based. The source says:
This DNA fragmentation was not observed in normal 3T3 cells.

On to `O=S1(=O)CCN(CN2CCS(=O)(=O)NC2)CN1` [Taurolidine, Bis-(1,1-dioxoperhydro-1,2,4-thiadiazinyl-4)methane], for which, in the test with human cancer cell lines, the IC50 lay in the range of 12.5 to 50 µM. In test [1] (20 mg/mouse/injection i.p. x 3 d starting on the day of tumor cell injection), the ascites formation entry is given as “no evidence of ascites formation”. Moreover, the “tumor formation and growth” value in test [1] (3 d 20 mg/mouse i.p. regimen, nude mice bearing i.p. human ovarian tumor xenografts) is “significant inhibition of both tumor formation and growth; also recorded: significantly inhibited tumor development and growth; also recorded: highly effective and inhibited tumor formation”. In addition, the tumor growth result in test [1] (single cycle initiated 5 d after tumor cell injection (established i.p. tumors)) is on record as “significantly inhibiting tumor growth”. Moreover, the “mean tumor size in treated mice vs controls” value in test [1] (therapy delayed for up to 3 d after tumor cell injection) is reported as “significantly smaller than in controls”. Besides, the DNA fragmentation entry with 3T3 cells (3T3, 24-hour exposure) was “not observed”. For the same compound, the “DNA fragmentation by agarose-gel electrophoresis” value with 3T3 cells (3T3 cells, identical regimen (50 μM)) was “not apparent”.

The values are drawn from US6964959B2, “Use of a methylol-containing compound to treat tumors” (Carter Wallace, Inc., priority 1999, dated 2005).
